Literature values, collected in US20240115547A1, “PSYCHOTROPIC AGENTS AND USES THEREOF” (LB PHARMACEUTICALS INC., priority 2021, published 2024).

Tests used:
D1 receptor subtype = D1 receptor subtype (Homo sapiens, UniProt P21728); details: cited from earlier work
5-HT2a receptor = 5-HT2a receptor (Homo sapiens, UniProt P28223); details: compared to other antipsychotics; cited from earlier work
D5 receptor subtype = D5 receptor subtype (Homo sapiens, UniProt P21918); details: cited from earlier work
D4 receptor subtype = biological target: T1, D4 receptor subtype (Homo sapiens, UniProt P21917); details: cited from earlier work
T1 sequence (P21917 1-419): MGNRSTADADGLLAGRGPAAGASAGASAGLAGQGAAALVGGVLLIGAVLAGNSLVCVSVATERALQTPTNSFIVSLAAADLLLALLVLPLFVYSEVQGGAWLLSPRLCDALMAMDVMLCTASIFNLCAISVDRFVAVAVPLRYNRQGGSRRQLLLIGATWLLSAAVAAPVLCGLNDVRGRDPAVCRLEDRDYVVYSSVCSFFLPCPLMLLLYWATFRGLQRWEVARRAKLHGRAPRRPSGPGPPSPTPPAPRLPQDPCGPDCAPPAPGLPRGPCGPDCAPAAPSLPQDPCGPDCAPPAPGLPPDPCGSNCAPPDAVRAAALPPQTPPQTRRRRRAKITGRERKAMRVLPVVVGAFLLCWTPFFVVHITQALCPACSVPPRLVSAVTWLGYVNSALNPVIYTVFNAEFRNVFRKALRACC

[1] = administration of 50 mg amisulpride, previously published (FIG. 4A); cited from earlier work
Striatal D2/D3 Receptor = details: in vivo; cited from earlier work
[2] = 2014 study; cited from earlier work

Sequence of D1 receptor subtype (P21728 whole entry): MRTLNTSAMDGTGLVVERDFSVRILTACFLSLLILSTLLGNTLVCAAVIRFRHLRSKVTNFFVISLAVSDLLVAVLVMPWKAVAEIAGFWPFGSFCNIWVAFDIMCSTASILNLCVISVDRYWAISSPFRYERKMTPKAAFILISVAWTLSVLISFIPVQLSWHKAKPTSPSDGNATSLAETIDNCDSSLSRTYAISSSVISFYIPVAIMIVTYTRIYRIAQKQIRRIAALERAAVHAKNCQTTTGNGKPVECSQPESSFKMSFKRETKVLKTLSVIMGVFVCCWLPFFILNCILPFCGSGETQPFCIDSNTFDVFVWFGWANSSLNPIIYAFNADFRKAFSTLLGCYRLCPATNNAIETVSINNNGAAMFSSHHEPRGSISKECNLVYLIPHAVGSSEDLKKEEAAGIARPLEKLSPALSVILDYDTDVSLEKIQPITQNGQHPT
Sequence of D5 receptor subtype (P21918 whole entry): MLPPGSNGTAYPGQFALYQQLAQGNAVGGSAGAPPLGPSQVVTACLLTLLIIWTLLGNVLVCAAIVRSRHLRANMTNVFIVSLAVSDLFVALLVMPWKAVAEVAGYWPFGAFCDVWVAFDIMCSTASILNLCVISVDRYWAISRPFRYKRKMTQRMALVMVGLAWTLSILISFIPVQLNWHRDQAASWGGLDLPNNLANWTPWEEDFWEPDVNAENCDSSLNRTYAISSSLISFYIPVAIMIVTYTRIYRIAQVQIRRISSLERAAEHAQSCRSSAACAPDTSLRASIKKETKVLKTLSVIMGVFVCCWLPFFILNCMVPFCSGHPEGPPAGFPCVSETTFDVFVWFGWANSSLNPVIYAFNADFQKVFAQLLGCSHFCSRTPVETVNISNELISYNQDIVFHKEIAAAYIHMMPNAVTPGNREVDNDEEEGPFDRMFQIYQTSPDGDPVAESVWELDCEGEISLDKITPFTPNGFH
Sequence of 5-HT2a receptor (P28223 whole entry): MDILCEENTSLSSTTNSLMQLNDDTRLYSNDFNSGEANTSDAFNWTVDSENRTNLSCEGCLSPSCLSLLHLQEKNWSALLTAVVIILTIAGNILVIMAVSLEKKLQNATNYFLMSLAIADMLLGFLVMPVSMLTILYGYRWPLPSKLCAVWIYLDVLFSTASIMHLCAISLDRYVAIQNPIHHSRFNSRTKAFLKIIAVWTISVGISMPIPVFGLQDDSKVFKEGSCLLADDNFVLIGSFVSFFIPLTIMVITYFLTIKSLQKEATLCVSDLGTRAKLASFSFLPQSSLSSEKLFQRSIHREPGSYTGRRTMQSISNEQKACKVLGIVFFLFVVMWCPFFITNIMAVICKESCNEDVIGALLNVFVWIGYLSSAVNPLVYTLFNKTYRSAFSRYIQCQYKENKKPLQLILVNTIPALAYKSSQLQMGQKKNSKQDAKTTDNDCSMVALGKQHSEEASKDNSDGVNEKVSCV

SMILES: CCN1CCCC1CNC(=O)c1cc(S(=O)(=O)CC)c(N)cc1OC (stereo not shown) [amisulpride, 4-amino-N-(((1-ethyl-2-pyrrolidinyl)methyl)-5-(ethylsulfonyl))-2-methoxybenzamide]
- affinity for D1 receptor subtype (D1 receptor subtype): without any affinity
- activity at the 5-HT2a receptor (5-HT2a receptor): not noted to have any activity
- affinity for D5 receptor subtype (D5 receptor subtype): without any affinity
- affinity for D4 receptor subtype (D4 receptor subtype): without any affinity
- AUC [1]: 603 ngh/mL
- dose required for 75% dopamine (e.g., D2/D3) RO (Striatal D2/D3 Receptor): more than 400 mg
- passive diffusion across a PAMPA membrane (measured as Pe) [2]: lowest of 30 psychiatric drugs tested
